From paper PMC10544810 (Food & Function, 2023)

Key:
LC-MS [1] = type: in vivo, human; conditions: for plasma concentration (mean ± SD): fasted baseline plasma, 90 volunteers; for concentrations detected in plasma: individual volunteers, ESI Fig. S4
LC-MS [2] = type: in vivo, human; conditions: given as x : 1; plasma versus CSF concentrations
[3] = cited from earlier work

Compound	plasma concentration (mean ± SD) (LC-MS [1])	plasma : CSF ratio (LC-MS [2])	other results
CCOC(=O)c1cc(O)c(O)c(O)c1 [3,4,5-trihydroxybenzene ethyl ester]	0.0053 ± 0.0041 µM	–	–
O=C(O)c1cccc(O)c1 [3-Hydroxybenzoic acid]	–	–	CSF concentration reported by a previous study [3]: 58.5 nM
Cn1c(=O)[nH]c(=O)c2[nH]cnc21 [3-Methylxanthine]	5.3 ± 3.8 µM	–	–
O=c1ccc2ccc(O)c(O)c2o1 [7,8-Dihydroxycoumarin]	–	5	concentrations detected in plasma (LC-MS [1]): below 1 μM
O=C(O)CNC(=O)c1ccccc1 [hippuric acid]	387 ± 243 µM	–	–

The next lines start with results.

plasma concentration (mean ± SD) (LC-MS [1])	plasma : CSF ratio (LC-MS [2])	Compound	other results
179 ± 118 µM	–	Cn1c(=O)c2c(ncn2C)n(C)c1=O [1,3,7-Trimethylxanthine, reference compound]	–
–	620	Cn1c(=O)c2[nH]cnc2n(C)c1=O [1,3-Dimethylxanthine, reference compound]	–
–	24	Oc1cc(O)c2c(c1)O[C@H](c1ccc(O)c(O)c1)[C@H](O)C2 [(−)-Epicatechin]	concentrations detected in plasma (LC-MS [1]): below 1 μM
